Results taken from patent US5736539A, “Inhibitors of farnesyl-protein transferase” (Merck & Co., Inc., priority 1995, dated 1998).
Structures can show the parent of a compound that is named as a salt.

Tests used:
[1] = biological target: Farnesyl-protein transferase (FPTase); assay: In vitro inhibition of ras farnesyl transferase (Ras-CVLS, [3H]FPP); type: biochemical, bovine brain or recombinant human; settings: Ras-CVLS 3.5 μM, 0.25 μM [3H]FPP; partially purified bovine or recombinant human enzyme; read-out: IC50 (concentration of the test compound which gives 50% inhibition of FPTase)
Protocol: Ras-CVLS at 3.5 μM, 0.25 μM [^3 H]FPP, and the indicated compounds were incubated with either a partially purified bovine enzyme preparation or a recombinant human enzyme preparation.

[2] = tested on: Ras farnesylation in the v-ras cell line (viral Ha-ras p21); assay: In vivo ras farnesylation assay (v-ras cell line, immunoprecipitation, percent inhibition of farnesyl transfer to protein); type: cell-based; settings: 4 h at 37° C. then additional 20 h labelling with [35S]methionine
Protocol: In vivo ras farnesylation assay
The cell line used in this assay was the v-ras line, which expressed viral Ha-ras p21. The assay was performed essentially as described in DeClue, J. E. et. al., Cancer Research 51,712-717, (1991). Cells in 10 cm dishes at 50-75% confluency were treated with the test compound (final concentration of solvent, methanol or dimethyl sulfoxide, was 0.1%). After 4 hours at 37° C., the cells were labelled in 3 ml methionine-free DMEM supplemeted with 10% regular DMEM, 2% fetal bovine serum and 400 μCi[^35 S]methionine (1000 Ci/mmol). After an additional 20 hours, the cells were lysed in 1 ml lysis buffer (1% NP40/20 mM HEPES, pH 7.5/5 mM MgCl2 /1 mM DTT/10 μg/ml aprotinen/2 μg/ml leupeptin/2 μg/ml antipain/0.5 mM PMSF) and the lysates cleared by centrifugation at 100,000×g for 45 min. Aliquots of lysates containing equal numbers of acid-precipitable counts were bought to 1 ml with IP buffer (lysis buffer lacking DTT) and immunoprecipitated with the ras-specific monoclonal antibody Y13-259 (Furth, M. E. et. al., J. Virol. 43, 294-304, (1982)). Following a 2 hour antibody incubation at 4° C., 200 μl of a 25% suspension of protein A-Sepharose coated with rabbit anti rat IgG was added for 45 min. The immunoprecipitates were washed four times with IP buffer ([…] HEPES, pH 7.5/1 mM EDTA/1% Triton X-100.0.5% deoxycholate/0.1%/SDS/0.1M NaCl) boiled in SDS-PAGE sample buffer and loaded on 13% acrylamide gels. When the dye front reached the bottom, the gel was fixed, soaked in Enlightening, dried and autoradiographed. The intensities of the bands corresponding to farnesylated and nonfarnesylated ras proteins were compared to determine the percent inhibition of farnesyl transfer to protein.

[3] = tested on: Ras farnesylation; settings: Hancock et al.; Casey et al.; Schafer et al., Science 245:379 (1989); cited from earlier work

Row | Compound | IC50 [1] | IC50 [2] | Inhibition of Ras farnesylation in vivo [3]
1 | 1-[2(R)-Amino-3-mercaptopropyl]-4-(1-naphthoyl)-2(S)-(3-methoxy-1-propyl)piperazine dihydrochloride [Example 18] | 1 nM | – | –
2 | CCCC[C@H]1CN(C(=O)c2cccc(C)c2C)CCN1C[C@@H](N)CS [Example 3, 1-[2(R)-Amino-3-mercaptopropyl]-2(S)-n-butyl-4-(2,3-dimethylbenzoyl)piperazine dihydrochloride] | 6 nM | 5000 nM | –
3 | Cc1cccc(C(=O)N2CCN(C[C@@H](N)CS)[C@@H](Cc3ccccc3)C2)c1C [Example 6, 1-[2(R)-Amino-3-mercaptopropyl]-2(S)-benzyl-4-(2,3-dimethylbenzoyl)piperazine dihydrochloride] | 4 nM | 500 to 1000 nM | –
4 | COCC[C@H]1CN(C(=O)c2cccc(C)c2C)CCN1C[C@@H](N)CS [Example 7, 1-[2(R)-Amino-3-mercaptopropyl]-4-(2,3-dimethylbenzoyl)-2(S)-(2-methoxyethyl)piperazine dihydrochloride] | – | 500 to 1000 nM | –
5 | CSCC[C@H]1CN(C(=O)c2cccc(C)c2C)CCN1C[C@@H](N)CS [Example 8, 1-[2(R)-Amino-3-mercaptopropyl]-4-(2,3-dimethylbenzoyl)-2(S)-(2-methylthioethyl)piperazine dihydrochloride] | 11 nM | 500 to 1000 nM | –
6 | COCC[C@H]1CN(C(=O)c2cccc3ccccc23)CCN1C[C@@H](N)CS [Example 12, 1-[2(R)-Amino-3-mercaptopropyl]-4-(1-naphthoyl)-2(S)-(2-methoxyethyl)piperazine dihydrochloride] | 5 nM | 500 nM | –
7 | CCCOCC[C@H]1CN(C(=O)c2cccc3ccccc23)CCN1C[C@@H](N)CS [Example 13, 1-[2(R)-Amino-3-mercaptopropyl]-2(S)-(2-(1-propoxy)ethyl)-4-(1-naphthoyl)piperazine dihydrochloride] | 3 nM | 500 nM | –
8 | N[C@@H](CS)CN1CCN(C(=O)c2cccc3ccccc23)C[C@@H]1CCOCc1cccnc1 [Example 14, 1-[2(R)-Amino-3-mercaptopropyl]-2(S)-(2-(3-pyridylmethoxy)ethyl)-4-(1-naphthoyl)piperazine trihydrochloride] | 1 nM | – | –
9 | CCCOCC[C@H]1CN(C(=O)c2cccc3cccnc23)CCN1C[C@@H](N)CS [Example 15, 1-[2(R)-Amino-3-mercaptopropyl]-2(S)-(2-(1-propoxy)ethyl)-4-(8-quinolinylcarbonyl)piperazine trihydrochloride] | 6 nM | – | –
10 | CCCC[C@H]1CN(C(=O)c2cccc3ccccc23)CCN1C[C@@H](N)CS [Example 16, 1-[2(R)-Amino-3-mercaptopropyl]-2(S)-n-butyl-4-(1-naphthoyl)piperazine dihydrochloride] | 2 nM | 500 nM | –
11 | CCCC[C@H]1CN(C(=O)c2cccc3c2OCC3)CCN1C[C@@H](N)CS [Example 17, 1-[2(R)-Amino-3-mercaptopropyl]-2(S)-n-butyl-4-[7-(2,3-dihydrobenzofuranoyl)]piperazine dihydrochloride] | 6 nM | 500 nM | –
12 | CCCC[C@H]1CN(C(=O)c2cccc3cccnc23)CCN1C[C@@H](N)CS [Example 19, 1-(2(R)-Amino-3-mercaptopropyl)-2(S)-n-butyl-4-(8-quinolinylcarbonyl)piperazine trihydrochloride] | 5 nM | 1000 nM | –
13 | COCC[C@H]1CN(C(=O)c2cccc3ccccc23)CCN1C[C@@H](N)CSSC[C@H](N)CN1CCN(C(=O)c2cccc3ccccc23)C[C@@H]1CCOC [Example 21, bis-1, 1'-[2(R)-Amino-3-(2(S)-(2-methoxyethyl)-4-naphthoyl-1-piperazinyl)]propyl disulfide tetrahydrochloride] | 1 nM | – | –
14 | CC(=O)NCCCC[C@H]1CN(C(=O)c2cccc3ccccc23)CCN1C[C@@H](N)CS [Example 27, 1-[2(R)-Amino-3-mercaptopropyl]-4-(1-naphthoyl)-2(S)-(4-acetamidobutyl)piperazine dihydrochloride] | 3.5 nM | 500 nM | –
15 | N[C@@H](CS)CN1CCCN(C(=O)c2cccc3ccccc23)CC1 [Example 28, 1-(2(R)-Amino-3-mercaptopropyl)-4-(1-naphthoyl)homopiperazine dihydrochloride] | 21 nM | 10000 nM | –
16 | NC(CS)CN1CCN(C(=O)c2cccc3ccccc23)CC1C(=O)N1CCCCC1 [Example 30, 1-(2(R)-Amino-3-mercaptopropyl)-4-(1-naphthoyl)-2(S)-piperidylcarboxyl-4-piperazine dihydrochloride] | 3 nM | 500 nM | –
17 | COC(=O)C1CN(C[C@@H](N)CS)CCN1Cc1cccc2ccccc12 (stereo partly drawn) [Example 31, Methyl 4-(2(R)-amino-3-mercaptopropyl)-l-(1-naphthylmethyl)piperazine-2-carboxylate hydrochloride] | 2.9 nM | 10000 nM | –
18 | CC[C@H](C)C(=O)O[C@H]1CCC=C2C=C[C@H](C)[C@H](CC[C@@H]3C[C@@H](O)CC(=O)O3)[C@H]21 [compactin] | – | – | Inhibition of Ras farnesylation in vivo has been demonstrated
19 | CC[C@H](C)C(=O)O[C@H]1C[C@@H](C)C=C2C=C[C@H](C)[C@H](CC[C@@H]3C[C@@H](O)CC(=O)O3)[C@H]21 [lovastatin] | – | – | Inhibition of Ras farnesylation in vivo has been demonstrated
